Assay results reported in PMC6272185 (Molecules, 2015).
In brackets after ≈: the same amount, converted by molar mass. Where two headings read alike, the source gives them in different places.

What was measured:
[1] = tested on: TNF-α production by LPS-stimulated RAW 264.7 macrophages; assay: Inhibition of TNF-α production by LPS-stimulated macrophages (ELISA); type: cell-based, murine; details: for IC50: Mus musculus, read-out: IC50 TNF-α
[2] = Macrophage cytotoxicity, LDH release assay; type: cell-based, murine; details: mouse, RAW 264.7 macrophages stimulated with LPS; LPS-stimulated RAW 264.7, LDH release; mean ± SD, n = 3
Protocol: (§5) Cytotoxic effects of chalcone samples on RAW 264.7 cell viability in cultures stimulated with LPS were determined using the LDH (lactate dehydrogenase) release assay as previously described [58]. Cytoplasmic enzyme LDH release into cell culture supernatants was detected using a commercial LDH kit (Doles, GO, Brazil). Cell death was expressed as percentage of LDH release, which was calculated using the following formula: percentage of LDH release = 100 × (test LDH release − spontaneous release)/(maximum release − spontaneous release). The maximum release was determined following dissolution of cell monolayers using 1% (vol/vol) Triton X-100. The spontaneous release was determined in supernatants from cultures incubated in the presence of LPS and DMSO, used as a solvent for chalcone samples.

M. bovis BCG = assay: microbe, parasite or virus in culture; type: cell-based, Mycobacterium bovis BCG; details: Mycobacterium tuberculosis variant bovis BCG, BCG, 168 h; for MIC50: read-out: MIC50 M. bovis BCG; for MIC90: read-out: MIC90 M. bovis BCG
[3] = tested on: IL-1β production by LPS-stimulated RAW 264.7 macrophages; assay: Inhibition of IL-1β production by LPS-stimulated macrophages (ELISA); type: cell-based, murine; details: for IC50: Mus musculus, RAW264.7, 24 h, read-out: IC50 IL-1β
Protocol: (§1) Murine RAW 264.7 macrophage cell line (American Type Culture Collection, Manassas, VA, USA), was cultured in Dulbecco’s modified Eagle’s medium (DMEM-F12) supplemented with 10% Fetal Bovine Serum (FBS) and gentamicin (50 µg/mL) in 5% CO2 atmosphere at 37 °C. For experiments, the cells were seeded in 96-well plates (1 × 10^5 cells/well) and incubated for 24 h at 37 °C. For macrophage stimulation, the cell cultures were treated with LPS (1 µg/mL) and incubated for additional 24 h in the presence or absence of the chalcone samples (samples 1–41) that were used at concentrations of 100, 20, 4 and 0.8 µg/mL. In some experiments, a nitric oxide (NO) inhibitor, L-NMMA (20 μg/mL), was used as a positive control of NO inhibition, and a non-steroidal anti-inflammatory drug indomethacin, known to inhibit production of prostaglandins, was used as a positive control of PGE2 inhibition.
(§2) The frozen culture supernatants samples were thawed and immediately analyzed using commercially available enzyme-linked immunosorbent assay (ELISA) kits to measure TNF-α, IL-1β (BD Biosciences) and PGE2 (R&D Systems, Minneapolis, MN, USA), according to the manufacturer’s instructions. Standard curves for each mediator were generated using reference cytokine concentrations supplied by the manufacturer. Nitric oxide (NO) generation was assessed by the Griess method to measure nitrites, which are stable breakdown NO products.

[4] = tested on: PGE2 production by LPS-stimulated RAW 264.7 macrophages; assay: Inhibition of PGE2 production by LPS-stimulated macrophages (ELISA); type: cell-based, murine; details: Mus musculus, RAW264.7, 24 h, read-out: IC50 PGE2
Protocol: as §1, §2

[5] = tested on: iNOS expression in RAW 264.7 macrophages; assay: iNOS expression by western blot in LPS-stimulated macrophages; type: cell-based, murine; details: 20 µg/mL, LPS 1 µg/mL, 24 h
Protocol: (§3) RAW 264.7 macrophages were plated in Petri dishes (2 × 10^7 cells·mL^−1) and incubated for 24 h at 37 °C in 5% CO2 atmosphere. […] The resulted cellular monolayers were washed with PBS 1×, scraped and resuspended in PBS 1×, transferred and centrifuged to obtain cell pellets. The cells were lysed in buffer (10% SDS, 20% glycerol, 5% 2-mercaptoethanol, 2% bromophenol blue and 1 M Tris HCl, pH 6.8, containing protease inhibitors). Protein concentrations were estimated by Bradford method. For western blot analysis, cellular extract samples (60 µg) were submitted to 10% SDS–polyacrylamide gel electrophoresis under […] conditions and transferred to nitrocellulose membranes (Amersham Pharmacia Biotech, Uppsala, Sweden). After blocking with PBS-T (0.5% Tween-20) containing 2.5% (w/v) bovine serum albumin, the membranes were incubated with antibodies against iNOS (1:1000) and COX-2 (1:500) for 1 h at room temperature. After incubation period, the membranes were washed followed by treatment with horseradish peroxidase-conjugated secondary antibody. The resulting membranes were developed using diaminobenzidine/H2O2 as a substrate for peroxidase. In all electrophoresis experiments, a protein standard ladder (Full Range Rainbow-GE Healthcare, Piscataway, NJ, USA) was used to estimate proteins molecular size. Protein bands densitometric analysis was performed using ImageJ software for Windows (NIH, Bethesda, MD, USA). The value for stimulated condition (LPS- treated cells) was set as 1 and other conditions were recalculated correspondingly to allow ratio comparisons.

M. tuberculosis H37Rv = assay: microbe, parasite or virus in culture; type: cell-based, Mycobacterium tuberculosis; details: Mycobacterium tuberculosis
[6] = tested on: M. tuberculosis strain H37Rv in RAW 264.7 macrophages; assay: Intracellular growth of M. tuberculosis H37Rv in infected macrophages (CFU); type: cell-based, Mycobacterium tuberculosis; details: Mycobacterium tuberculosis, H37RV, 96 h, infected RAW 264.7, MOI 1:1, 4 days, Figure 3C
Protocol: (§4) RAW 264.7 macrophages were plated (1 × 10^5 cells/well) in antibiotic-free DMEM-F12 medium supplemented with 10% fetal bovine serum and incubated for 24 h. Prior to infection, mycobacterial suspensions were sonicated for 1 minute to disperse clumps and optical densities were adjusted to 0.1. The macrophage cultures were infected at a MOI of 1:1 (macrophage: bacterium). Phagocytosis was allowed to progress for 3 h. After 3 h, extracellular mycobacteria were removed by washing with PBS 1X and the infected cell monolayers were treated for 4 days with chalcone samples or rifampicin. Macrophage viability was monitored by LDH assay and was over 80% in all experiments. On day 4 after infection, cells were lysed cells with 1% saponin to release intracellular bacteria. Lysate aliquots were diluted 10-fold in PBS, plated in triplicates on 7H10 agar plates and incubated at 37 °C. After 21 days, total CFU were determined.

[7] = tested on: RAW 264.7 macrophages infected with M. tuberculosis H37Rv; assay: Toxicity for infected macrophages, LDH assay; type: cell-based, murine; details: Mus musculus, RAW264.7, 96 h; infected RAW 264.7, 4 days treatment; Figure 3D
Protocol: Cytotoxic effects of chalcone samples on RAW 264.7 cell viability in cultures stimulated with LPS were determined using the LDH (lactate dehydrogenase) release assay as previously described. Cytoplasmic enzyme LDH release into cell culture supernatants was detected using a commercial LDH kit (Doles, GO, Brazil). Cell death was expressed as percentage of LDH release, which was calculated using the following formula: percentage of LDH release = 100 × (test LDH release − spontaneous release)/(maximum release − spontaneous release). The maximum release was determined following dissolution of cell monolayers using 1% (vol/vol) Triton X-100. The spontaneous release was determined in supernatants from cultures incubated in the presence of LPS and DMSO, used as a solvent for chalcone samples.
as §4

[8] = tested on: NO production by LPS-stimulated RAW 264.7 macrophages; assay: Inhibition of NO production by LPS-stimulated macrophages (Griess); type: cell-based, murine; details: mean ± SD, n = 3
M. tuberculosis M299 = assay: microbe, parasite or virus in culture; type: cell-based, Mycobacterium tuberculosis; details: for MIC50 / MIC90: Mycobacterium tuberculosis, M299, 120 h
RAW 264.7 macrophages = assay: Macrophage cytotoxicity, LDH release assay; type: cell-based, murine; details: LDH release
Protocol: as §5

[9] = tested on: COX-2 expression in RAW 264.7 macrophages; assay: COX-2 expression by western blot in LPS-stimulated macrophages; type: cell-based, murine; details: 20 µg/mL, LPS 1 µg/mL, 24 h
Protocol: as §3

[10] = RAW264.7, LPS (1 µg/mL)-stimulated RAW 264.7, 24 h, mean ± SD, n = 3
[11] = H37RV, 120 h, read-out: MIC50 M. tuberculosis H37Rv
[12] = Table 5, same values as M. tuberculosis H37Rv in Table 3, read-out: MIC50
[13] = Mus musculus, RAW264.7, 24 h, read-out: IC50 NO, LPS (1 µg/mL)-stimulated RAW 264.7, 24 h
[14] = Mus musculus, RAW264.7, 24 h, LPS (1 µg/mL)-stimulated RAW 264.7, 24 h, read-out: IC50 NO

Structure (SMILES)	IC50 [1, 10] [µM]	IC50 [2] [µM]	MIC50 (M. bovis BCG) [µM]	MIC90 (M. bovis BCG) [µM]	IC50 [3] [µM]	IC50 [4] [µM]	inhibition of iNOS expression [5]	MIC90 (M. tuberculosis H37Rv; H37RV, 120 h) [µM]	MIC50 (M. tuberculosis H37Rv; [11]) [µM]	MIC50 (M. tuberculosis H37Rv; [12]) [µM]	MIC50 [6] [µM]	IC50 [7] [µM]	IC50 [8, 13] [µM]	IC50 ([1]; RAW264.7, 24 h) [µM]	activity against M299 compared with H37Rv (M. tuberculosis M299)	MIC50 (M. tuberculosis M299) [µM]	MIC90 (M. tuberculosis M299) [µM]	IC50 [8, 14] [µM]	also measured
O=C(/C=C/c1ccc(Cl)cc1)c1ccccc1Cl [Chalcone 33]	166 ± 5.2	351 ± 5	45.7 ± 5.4 (≈ 12.7 µg/mL)	> 361	287 ± 3.6	75.1 ± 3.5	almost completely inhibit	356 ± 4.9 (≈ 98.6 µg/mL)	36.9 ± 4.5 (≈ 10.2 µg/mL)	36.9 ± 4.5 (≈ 10.2 µg/mL)	248 ± 3.7 (≈ 68.7 µg/mL)	271.7 ± 2.7	–	–	–	–	–	–	–
O=C(/C=C/c1ccccc1Cl)c1ccc(Br)cc1 [Chalcone 15]	–	256 ± 3.8	13.8 ± 4.4 (≈ 4.44 µg/mL)	265 ± 4.5 (≈ 85.3 µg/mL)	> 311	32.8 ± 3.7	–	288 ± 5.5 (≈ 92.6 µg/mL)	17.1 ± 3.8 (≈ 5.5 µg/mL)	17.1 ± 3.8 (≈ 5.5 µg/mL)	242 ± 4.4 (≈ 77.9 µg/mL)	214 ± 2.5	36.7	> 311	significantly less potent	> 311	> 311	–	–
COc1ccc(C(=O)/C=C/c2ccccc2)cc1 [Chalcone 24]	78.8 ± 6.5	245 ± 4.5	31.5 ± 5.9 (≈ 7.51 µg/mL)	399 ± 6.9 (≈ 95.1 µg/mL)	56.6 ± 3.5	90 ± 3.4	–	375 ± 6.8 (≈ 89.3 µg/mL)	25.3 ± 5.2 (≈ 6.03 µg/mL)	25.3 ± 5.2 (≈ 6.03 µg/mL)	42.6 ± 3.1 (≈ 10.2 µg/mL)	319 ± 4.6	< 21	–	significantly less potent	> 420	> 420	–	IC50 ([8]; LPS (1 µg/mL)-stimulated RAW 264.7, 24 h, read-out: IC50 NO): 21.3 ± 4.5 µM; inhibition of TNF-α ([1]; LPS-stimulated RAW 264.7): strongly inhibit; inhibition of IL-1β ([3]; LPS-stimulated RAW 264.7): potent inhibitors
O=C(/C=C/c1ccc(F)cc1)c1ccc(Br)cc1 [Chalcone 9]	> 328	> 328	35.8 ± 3.9 (≈ 10.9 µg/mL)	309 ± 5.3 (≈ 94.2 µg/mL)	–	–	–	252 ± 2.7 (≈ 76.9 µg/mL)	24.4 ± 4.5 (≈ 7.45 µg/mL)	24.4 ± 4.5 (≈ 7.45 µg/mL)	12 ± 1.1 (≈ 3.66 µg/mL)	> 321	–	–	–	53.6 ± 1.9 (≈ 16.3 µg/mL)	313 ± 1.4 (≈ 95.5 µg/mL)	> 328	–
CN(C)c1ccc(/C=C/C(=O)c2ccc(Br)cc2)cc1 [Chalcone 11]	> 303	132 ± 2.9	67.8 ± 3.8 (≈ 22.4 µg/mL)	242 ± 2.6 (≈ 79.9 µg/mL)	–	–	–	–	–	–	–	–	–	–	–	–	–	41.3 ± 3.5	cytotoxicity profile (RAW 264.7 macrophages): worst cytotoxicity profiles
O=C(/C=C/c1ccccc1)c1ccccc1Cl [Chalcone 31]	–	267 ± 4.5	90.9 ± 5.5 (≈ 22.1 µg/mL)	330 ± 4.2 (≈ 80.1 µg/mL)	> 412	10.2 ± 0.5	almost completely inhibit	–	–	–	–	–	–	> 412	–	–	–	–	abrogation of COX-2 expression [9]: most potent in abrogation
